# Laboratory results: patent US11261186B2, “Biaryl derivative as GPR120 agonist” (LG CHEM, LTD., priority 2014, dated 2022)
# Molecular target: T1, hGPR120 (Homo sapiens, UniProt Q5NUL3)
# T1 construct: expressed in transfected cells; host or cells: CHO-K1
# T1 sequence (Q5NUL3 1-361): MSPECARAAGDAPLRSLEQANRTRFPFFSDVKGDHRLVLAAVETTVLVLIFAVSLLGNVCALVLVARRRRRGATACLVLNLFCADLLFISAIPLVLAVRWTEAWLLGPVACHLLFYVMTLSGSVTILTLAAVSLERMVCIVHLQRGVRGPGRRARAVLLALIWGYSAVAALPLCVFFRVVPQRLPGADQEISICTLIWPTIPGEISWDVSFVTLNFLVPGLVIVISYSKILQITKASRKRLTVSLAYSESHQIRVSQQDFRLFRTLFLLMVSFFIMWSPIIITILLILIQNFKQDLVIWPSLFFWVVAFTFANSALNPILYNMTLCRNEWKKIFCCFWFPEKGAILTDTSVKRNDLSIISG
# Assay: Measurement of Activity of GPR120 Agonist (Cell-Based Assay), Calcium 5 dye fluorescence
# Conditions: CHO-K1 cells expressing Ga16 and hGPR120
# Procedure, shortened: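 Gα16/hGPR120 CHO-K1; 18 h plating, 37 °C, 5% CO2; Calcium 5 dye load 1 h; agonist serial dilution, 0.5% DMSO final; fluor Ex485/Em525; response as % of 1% DMSO vehicle.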
row,SMILES,EC50 [nM]
1,"O=C(O)CC1CCN(c2c(F)cc(-c3nc(OCC4CC4)cs3)cc2F)CC1 [Example 377, {1-[4-(4-cyclopropylmethoxy-thiazol-2-yl)-2,6-difluoro-phenyl]-piperidin-4-yl}acetic acid]",< 200
2,"O=C(O)CC1CCN(c2c(F)cc(-c3nc(OC4CCC4)cs3)cc2F)CC1 [Example 379, {1-[4-(4-cyclobutoxy-thiazol-2-yl)-2,6-difluoro-phenyl]-piperidin-4-yl}acetic acid]",< 200
3,"CCCCOc1csc(-c2cc(F)c(N3CCC(CC(=O)O)CC3)c(F)c2)n1 [Example 380, {1-[4-(4-butoxy-thiazol-2-yl)-2,6-difluoro-phenyl]-piperidin-4-yl}acetic acid]",200 to 2000
4,"O=C(O)CC1CCN(c2c(F)cc(-c3ncnc4c3CCC4)cc2F)CC1 [Example 382, 2-[1-[4-(6,7-dihydro-5H-cyclopenta[d]pyrimidin-4-yl)-2,6-difluoro-phenyl]-4-piperidyl]acetic acid]",> 20000
5,"Cc1nc(-c2cc(F)c(N3CCC(CC(=O)O)CC3)c(F)c2)nc(OC2CCC2)c1C [Example 384, 2-[1-[4-[4-(cyclobutoxy)-5,6-dimethyl-pyrimidin-2-yl]-2,6-difluoro-phenyl]-4-piperidyl]acetic acid]",2000 to 20000
6,"O=C(O)CCCOc1c(F)cc(-c2cccc(OC3CCC3)n2)cc1Cl [Example 385, 4-[2-chloro-4-[6-(cyclobutoxy)-2-pyridyl]-6-fluoro-phenoxy]butanoic acid]",< 200
7,"O=C(O)CCCOc1c(Cl)cc(-c2cccc(OC3CCC3)n2)cc1Cl [Example 386, 4-[2,6-dichloro-4-[6-(cyclobutoxy)-2-pyridyl]phenoxy]butanoic acid]",< 200
8,"O=C(O)CCCOc1c(F)cc(-c2occc2COCC2CC2)cc1F [Example 387, 4-[4-[3-(cyclopropylmethoxymethyl)-2-furyl]-2,6-difluoro-phenoxy]butanoic acid]",< 200
9,"O=C(O)CCCOc1c(F)cc(-c2cccc(COCC3CC3)n2)cc1F [Example 388, 4-[4-[6-(cyclopropylmethoxymethyl)-2-pyridyl]-2,6-difluoro-phenoxy]butanoic acid]",200 to 2000
10,"O=C(O)CCCOc1c(F)cc(-c2cc(F)cc(OC3CCC3)c2)cc1Cl [Example 389, 4-[2-chloro-4-[3-(cyclobutoxy)-5-fluoro-phenyl]-6-fluoro-phenoxy]butanoic acid]",< 200
11,"Cc1onc(COCC2CC2)c1-c1cc(F)c(OCCCC(=O)O)c(F)c1 [Example 390, 4-[4-[3-(cyclopropylmethoxymethyl)-5-methyl-isoxazol-4-yl]-2,6-difluoro-phenoxy]butanoic acid]",> 20000
12,"Cc1cc(OC2CCC2)nc(-c2cc(F)c(OCCCC(=O)O)c(Cl)c2)n1 [Example 391, 4-[2-chloro-4-[4-(cyclobutoxy)-6-methyl-pyrimidin-2-yl]-6-fluoro-phenoxy]butanoic acid]",< 200
13,"Cc1cc(-c2cc(F)c(OCCCC(=O)O)c(Cl)c2)nc(OC2CCC2)n1 [Example 392, 4-[2-chloro-4-[2-(cyclobutoxy)-6-methyl-pyrimidin-4-yl]-6-fluoro-phenoxy]butanoic acid]",< 200
14,"O=C(O)CCCOc1c(F)cc(-c2cc(OC3CCC3)cc(Cl)n2)cc1F [Example 393, 4-[4-[6-chloro-4-(cyclobutoxy)-2-pyridyl]-2,6-difluoro-phenoxy]butanoic acid]",< 200
15,"O=C(O)CCCOc1c(F)cc(-c2csc(OC3CCC3)n2)cc1F [Example 394, 4-[4-[2-(cyclobutoxy)thiazol-4-yl]-2,6-difluoro-phenoxy]butanoic acid]",< 200
16,"Cc1cc(OC2CCC2)nc(-c2cc(F)c(OCCCC(=O)O)c(F)c2)c1 [Example 395, 4-[4-[6-(cyclobutoxy)-4-methyl-2-pyridyl]-2,6-difluoro-phenoxy]butanoic acid]",< 200
17,"Cc1cc(OCC2CC2)nc(-c2cc(F)c(OCCCC(=O)O)c(Cl)c2)n1 [Example 396, 4-[2-chloro-4-[4-(cyclopropylmethoxy)-6-methyl-pyrimidin-2-yl]-6-fluoro-phenoxy]butanoic acid]",< 200
18,"O=C(O)CCCOc1c(F)cc(-c2csc(OCC3CC3)n2)cc1F [Example 397, 4-[4-[2-(cyclopropylmethoxy)thiazol-4-yl]-2,6-difluoro-phenoxy]butanoic acid]",< 200
19,"O=C(O)CCCOc1c(F)cc(-c2cncc(OC3CCC3)n2)cc1F [Example 398, 4-[4-[6-(cyclobutoxy)pyrazin-2-yl]-2,6-difluoro-phenoxy]butanoic acid]",< 200
20,"CC(CCCC(=O)O)c1c(F)cc(-c2cncc(OC3CCC3)n2)cc1F (stereo not shown) [Example 399, 5-[4-[6-(cyclobutoxy)pyrazin-2-yl]-2,6-difluoro-phenyl]hexanoic acid]",< 200

row,SMILES,EC50 [nM]
1,"O=C(O)CCCOc1c(F)cc(-c2cccc(OC3CCCC3)n2)cc1Cl [Example 400, 4-[2-chloro-4-(6-cyclopentyloxy-pyridin-2-yl)-6-fluoro-phenoxy]-butyric acid]",< 200
2,"O=C(O)CCCOc1c(F)cc(-c2cccc(OCC3CC3)n2)cc1Cl [Example 401, 4-[2-chloro-4-(6-cyclopropylmethoxy-pyridin-2-yl)-6-fluoro-phenoxy]-butyric acid]",< 200
3,"CC(C)Oc1cccc(-c2cc(F)c(OCCCC(=O)O)c(Cl)c2)n1 [Example 402, 4-[2-chloro-6-fluoro-4-(6-isopropoxy-pyridin-2-yl)-phenoxy]-butyric acid]",< 200
4,"O=C(O)CCCOc1c(F)cc(-c2cccc(SC3CCC3)n2)cc1Cl [Example 403, 4-[2-chloro-4-(6-cyclobutylsulfanyl-pyridin-2-yl)-6-fluoro-phenoxy]-butyric acid]",< 200
5,"CC(C)Sc1cccc(-c2cc(F)c(OCCCC(=O)O)c(Cl)c2)n1 [Example 404, 4-[2-chloro-6-fluoro-4-(6-isopropylsulfanyl-pyridin-2-yl)-phenoxy]-butyric acid]",< 200
6,"O=C(O)CCCOc1c(F)cc(-c2cccc(OC3CCC3)c2)cc1Cl [Example 405, 4-(5-chloro-3′-cyclobutoxy-3-fluoro-biphenyl-4-yloxy)-butyric acid]",< 200
7,"O=C(O)CCCOc1c(F)cc(-c2cccc(OCC3CC3)c2)cc1Cl [Example 406, 4-(5-chloro-3′-cyclopropylmethoxy-3-fluoro-biphenyl-4-yloxy)-butyric acid]",< 200
8,"COc1ccc(-c2cc(F)c(OCCCC(=O)O)c(Cl)c2)cc1OCC1CC1 [Example 407, 4-(5-chloro-3′-cyclopropylmethoxy-3-fluoro-4′-methoxy-biphenyl-4-yloxy)-butyric acid]",< 200
9,"O=C(O)CCCOc1c(F)cc(-c2ccc(F)c(OCC3CC3)c2)cc1Cl [Example 408, 4-(5-chloro-3′-cyclopropylmethoxy-3,4′-difluoro-biphenyl-4-yloxy)-butyric acid]",< 200
10,"O=C(O)CCCOc1c(F)cc(-c2cccc(SC3CCC3)c2)cc1F [Example 409, 4-(3′-cyclobutylsulfanyl-3,5-difluoro-biphenyl-4-yloxy)-butyric acid]",< 200
11,"CC(CCCC(=O)O)c1c(F)cc(-c2cccc(OC3CCC3)c2)cc1F (stereo not shown) [Example 410, 5-(3′-cyclobutoxy-3,5-difluoro-biphenyl-4-yl)-hexanoic acid]",< 200
12,"CC(CCCC(=O)O)c1c(F)cc(-c2cc(F)cc(OC3CCC3)c2)cc1F (stereo not shown) [Example 411, 5-(5′-cyclobutoxy-3,5,3′-trifluoro-biphenyl-4-yl)-hexanoic acid]",< 200
13,"COc1ccc(-c2cc(F)c(C(C)CCCC(=O)O)c(F)c2)cc1OCC1CC1 (stereo not shown) [Example 412, 5-(3′-cyclopropylmethoxy-3,5-difluoro-4′-methoxy-biphenyl-4-yl)-hexanoic acid]",< 200
14,"CC(CCCC(=O)O)c1c(F)cc(-c2cccc(OCC3CC3)c2)cc1F (stereo not shown) [Example 413, 5-(3′-cyclopropylmethoxy-3,5-difluoro-biphenyl-4-yl)-hexanoic acid]",< 200
15,"O=C(O)CCCC(F)(F)c1ccc(-c2cc(F)cc(OC3CCC3)c2)cc1 [Example 414, 5-(5′-cyclobutoxy-3′-fluoro-biphenyl-4-yl)-5,5-difluoro-pentanoic acid]",< 200
16,"CC(CCCC(=O)O)c1c(F)cc(-c2ccc(Cl)c(OC3CCC3)n2)cc1F (stereo not shown) [Example 415, 5-[4-(5-chloro-6-cyclobutoxy-pyridin-2-yl)-2,6-difluoro-phenyl]-hexanoic acid]",< 200
17,"O=C(O)CCCOc1c(F)cc(-c2cccc(S(=O)(=O)C3CCC3)c2)cc1F [Example 416, 4-(3′-cyclobutanesulfonyl-3,5-difluoro-biphenyl-4-yloxy)-butyric acid]",200 to 2000
18,"CN(Cc1cc(O)no1)c1ccc(-c2cccc(OC3CCC3)n2)cc1 [Example 417, 5-({[4-(6-cyclobutoxy-pyridin-2-yl)-phenyl]-methyl-amino}-methyl)-isoxazol-3-ol]",< 200
19,"Cc1cc(-c2cc(F)c(C(C)CCCC(=O)O)c(F)c2)nc(OC2CCC2)n1 (stereo not shown) [Example 418, 5-[4-(2-cyclobutoxy-6-methyl-pyrimidin-4-yl)-2,6-difluoro-phenyl]-hexanoic acid]",< 200
20,"Cc1cc(OC2CCC2)nc(-c2cc(F)c(C(C)CCCC(=O)O)c(F)c2)n1 (stereo not shown) [Example 419, 5-[4-(4-cyclobutoxy-6-methyl-pyrimidin-2-yl)-2,6-difluoro-phenyl]-hexanoic acid]",< 200
